Experimental findings from ChEMBL document CHEMBL1201862, “PubChem BioAssay data set” (2004) are described below.

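Cultured in 96-well plates, cells were exposed to test compound for 48 hours across five concentrations. The concentration for 50% growth inhibition is given as GI50.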 Active and inactive are the calls of the source. Cut-off read from the data, not from the text of the source: active = GI50 up to about 1.1 µM and inactive = higher.

Assay in all cases: NCI anticancer screen, dose series, 48 h
Assay [1] has as its system M14.
For assay [2], the system named is SR.
The subject of assay [3] is SF-268.
Assay [4] has as its system OVCAR-4.
Assay [5] relates to HL-60.
For assay [6], the system named is T47D.
Assay [7] concerns COLO 205.
Assay [8] concerns SNB-19.
In assay [9] the test system is HCT-15.
In assay [10] the test system is UO-31.
In assay [11] the test system is UACC-62.
Assay [12] concerns A498.
The subject of assay [13] is RPMI-8226.
Assay [14] has as its system KM12.
For assay [15], the system named is ACHN.
Assay [16] concerns SK-OV-3.
The subject of assay [17] is NCI-H460.
The test system of assay [18] is SNB-75.
The test system of assay [19] is PC-3.
For assay [20], the system named is DU-145.

Turning to `O=C1CC2(CCNCC2)C(=O)N1N1CCOCC1`, the GI50 in assay [1], in assay [2], in assay [3], in assay [4], in assay [5] and in assay [6] was > 100 µM (inactive) in each case. The GI50 in assay [7] is > 100 µM (inactive); in assay [8], > 100 µM (inactive); in assay [9] it was greater than 100 µM; in assay [10] it was > 100 µM (inactive); in assay [11] it was > 100 µM (inactive); in [12], > 100 µM (inactive). The GI50 in [13], in assay [14], in [15], in [16], in assay [17] and in assay [18] was > 100 µM (inactive) each time. Further, the GI50 in assay [19] and in [20] was > 100 µM (inactive) each time.
In the case of `C/C(=C/CC[C@](C)(OC1OC(CO)C(O)C(O)C1O)[C@H]1CC[C@]2(C)[C@@H]1CC[C@@H]1[C@@]3(C)CC[C@H](O)C(C)(C)[C@@H]3C[C@H](O)[C@]12C)CO` (stereo not given in full), the GI50 in assay [1] is 37.5 µM (inactive); in assay [2], 22.2 µM (inactive); in assay [3] it was 21.8 µM (inactive); in assay [4] it was 51.9 µM (inactive); in assay [5], 16.5 µM (inactive); in assay [6], 16.9 µM (inactive). The GI50 is 21.3 µM (inactive) in assay [7]; 22 µM (inactive) in [8]; 18.1 µM in [9]; 37.9 µM (inactive) in assay [10]; 19.1 µM (inactive) in [11]; 60 µM (inactive) in assay [12]. For the same compound, the GI50 in assay [13] was 5.4 µM (inactive); in [14] it was 22.7 µM (inactive); in assay [15], 40.6 µM (inactive); in assay [16], 21.9 µM (inactive); in assay [17], 16.8 µM (inactive); in [18] it was 8.43 µM (inactive). Also, the GI50 in assay [19] is 31.5 µM (inactive); in assay [20], 85.7 µM (inactive).
Turning to `C=CCn1c(=O)ccn(/C(=C/C(=O)OCC)C(=O)OCC)c1=O`, the GI50 in [1] was 13.5 µM (inactive); in assay [2], 6.4 µM (inactive); in [3] it was 19.7 µM (inactive); in assay [4] it was 12.4 µM (inactive); in [5], 1.76 µM (inactive); in assay [6], 5.13 µM (inactive). The GI50 in assay [7] is 1.74 µM (inactive); in assay [8], 29.4 µM (inactive); in assay [9] it was 1.83 µM; in assay [10] it was 14.9 µM (inactive); in assay [11], 15.7 µM (inactive); in assay [12] it was 17.9 µM (inactive). Further, the GI50 in assay [13] was 7.94 µM (inactive); in [14], 17.5 µM (inactive); in assay [15], 3.72 µM (inactive); in [16], 25.7 µM (inactive); in assay [17], 16.1 µM (inactive); in assay [18], 16.1 µM (inactive). For the same compound, the results for the GI50 in assay [19] and in assay [20] were 14.6 µM (inactive) and 21.7 µM (inactive), respectively.
In the case of `CC(Oc1ccccc1Cl)C(=O)NN1C(=O)CSC1c1ccccc1` (stereo not given), the GI50 in [1] was > 100 µM (inactive); in assay [2], 21.9 µM (inactive); in assay [3], > 100 µM (inactive); in [4], > 100 µM (inactive); in assay [5], 28.2 µM (inactive); in assay [6], 63.4 µM (inactive). The GI50 in [7] is > 100 µM (inactive); in assay [8] it was > 100 µM (inactive); in assay [9], greater than 100 µM; in assay [10] it was > 100 µM (inactive); in assay [11], > 100 µM (inactive); in assay [12], > 100 µM (inactive). Moreover, the GI50 is 83 µM (inactive) in [13]; > 100 µM (inactive) in [14]; > 100 µM (inactive) in [15]; > 100 µM (inactive) in [16]; > 100 µM (inactive) in [17]; > 100 µM (inactive) in assay [18]. In addition, the GI50 in assay [19] and in assay [20] was > 100 µM (inactive) throughout.
On to `N#CC1CCCC2SC(F)(F)C(F)(F)C12` (stereo not given), for which the GI50 in [1] is > 100 µM (inactive); in [2] it was 23.8 µM (inactive); in assay [3], > 100 µM (inactive); in [4], > 100 µM (inactive); in assay [5], 19.7 µM (inactive); in [6] it was > 100 µM (inactive). Further, the GI50 in assay [7] is > 100 µM (inactive); in assay [8] it was > 100 µM (inactive); in assay [9], greater than 100 µM; in assay [10] it was > 100 µM (inactive); in assay [11], > 100 µM (inactive); in [12], > 100 µM (inactive). Moreover, the GI50 in assay [13] is > 46.8 µM (inactive); in [14] it was > 100 µM (inactive); in assay [15] it was > 100 µM (inactive); in assay [16], > 100 µM (inactive); in [17] it was > 100 µM (inactive); in assay [18] it was > 88.3 µM (inactive). The GI50 in assay [19] and in assay [20] was > 100 µM (inactive) each time.
Consider `CC(=O)NNc1nc(C)c(C(/C=C/c2ccc([N+](=O)[O-])cc2)=N/NC(N)=S)s1`, for which the GI50 in assay [1], in assay [2], in [3], in assay [4], in [5] and in [6] was > 100 µM (inactive) in each case. For the same compound, the GI50 in assay [7] was > 100 µM (inactive); in assay [8] it was > 100 µM (inactive); in [9], greater than 100 µM; in assay [10], > 100 µM (inactive); in assay [11] it was > 100 µM (inactive); in assay [12], > 100 µM (inactive). For the same compound, the GI50 in assay [13], in assay [14], in assay [15], in assay [16], in assay [17] and in assay [18] was > 100 µM (inactive) throughout. For the same compound, the GI50 in assay [19] and in assay [20] was > 100 µM (inactive) each time.
`COc1ccc(-n2nnc(C(N)=O)c2O)cc1`: the GI50 in assay [1], in [2], in assay [3], in assay [4], in assay [5] and in assay [6] was > 100 µM (inactive) throughout. The GI50 in assay [7] is > 100 µM (inactive); in assay [8], > 100 µM (inactive); in assay [9], greater than 100 µM; in assay [10] it was 32.3 µM (inactive); in assay [11], > 100 µM (inactive); in [12] it was > 100 µM (inactive). Moreover, the GI50 in assay [13], in assay [14], in assay [15], in assay [16], in [17] and in assay [18] was > 100 µM (inactive) throughout. Moreover, the GI50 in assay [19] and in assay [20] was > 100 µM (inactive) in each case.
In the case of `C=C1[C@H](OC(=O)C(C)C)[C@]23CC4(O)[C@@H]5[C@@]6(C)CCC[C@]57C([C@@H]2C[C@@]1(O)[C@H](O)[C@@H]73)N4C6`, the GI50 in [1], in [2], in assay [3], in assay [4], in assay [5] and in [6] was > 100 µM (inactive) throughout. The GI50 in [7] is > 100 µM (inactive); in assay [8] it was > 100 µM (inactive); in assay [9], greater than 100 µM; in [10], > 100 µM (inactive); in assay [11] it was > 100 µM (inactive); in assay [12], > 100 µM (inactive). Further, the GI50 in [13] was > 100 µM (inactive); in assay [14], > 100 µM (inactive); in assay [15], 72.8 µM (inactive); in [16], 98.6 µM (inactive); in [17], > 100 µM (inactive); in [18] it was > 100 µM (inactive). For the same compound, the GI50 in [19] and in assay [20] was > 100 µM (inactive) throughout.
As to `CC(=O)OC(C)(C)[C@H]1O[C@]23O[C@]1(C)C[C@@H](C)[C@@H]2[C@@]1(C)CC[C@@]24C[C@@]25CC[C@H](O[C@@H]2OC[C@@H](O)[C@H](O)[C@H]2O)C(C)(C)[C@@H]5CC[C@H]4[C@]1(C)[C@H]3O`, the GI50 in assay [1] is 8.59 µM (inactive); in assay [2], 3.18 µM (inactive); in assay [3], 14 µM (inactive); in assay [4], 3.95 µM (inactive); in assay [5], 2.03 µM (inactive); in assay [6], 17.6 µM (inactive). For the same compound, the GI50 is 9.12 µM (inactive) in assay [7]; 6.27 µM (inactive) in assay [8]; 3.41 µM in assay [9]; 14.6 µM (inactive) in [10]; 14.6 µM (inactive) in assay [11]; 6.44 µM (inactive) in assay [12]. Further, the GI50 is 7.69 µM (inactive) in assay [13]; 3.35 µM (inactive) in [14]; 6.07 µM (inactive) in assay [15]; 12.3 µM (inactive) in assay [16]; 7.4 µM (inactive) in [17]; 17.1 µM (inactive) in [18]. The GI50 in [19] is 4.65 µM (inactive); in [20], 4.34 µM (inactive).
As to `Cc1cc(Cl)ccc1Nc1sc(C(=O)c2cc3cc(Cl)ccc3o2)c(N)c1C#N`, the GI50 in [1] was 9.57 µM (inactive); in assay [2] it was > 100 µM (inactive); in assay [3], 5.3 µM (inactive); in [4], 3.59 µM (inactive); in assay [5], > 80.5 µM (inactive); in [6], 16.6 µM (inactive). Besides, the GI50 in assay [7] is > 69.8 µM (inactive); in assay [8] it was 6.89 µM (inactive); in assay [9] it was 33 µM; in assay [10], 34.1 µM (inactive); in assay [11] it was 6 µM (inactive); in assay [12] it was 5.6 µM (inactive). Moreover, the GI50 is 2.27 µM (inactive) in [13]; 6.15 µM (inactive) in [14]; 15.4 µM (inactive) in assay [15]; 14.7 µM (inactive) in assay [16]; 5.96 µM (inactive) in assay [17]; 3.48 µM (inactive) in [18]. Further, the GI50 in assay [19] is 6.08 µM (inactive); in assay [20], 18.8 µM (inactive).
